Key:
[1] = tested on: R. rhodochrous “CIBA” (NCIMB 41164); assay: Relative nitrile hydratase activity after cultivation of R. rhodochrous "CIBA" with different carbon sources; type: cell-based, Rhodococcus rhodochrous; details: 10 g/l, 64 h
Experimental: In context with the present invention, activity of an nitrile hydratase in the sense of the present invention can be determined as follows: First reacting 100 μl of a cell suspension, cell lysate, dissolved enzyme powder or any other preparation containing the supposed nitrile hydratase with 875 μl of an 50 mM potassium phosphate buffer and 25 μl of acrylonitrile at 25° C. on an eppendorf tube shaker at 1,000 rpm for 10 minutes. After 10 minutes of reaction time, samples are drawn and immediately quenched by adding the same volume of 1.4% hydrochloric acid. After mixing of the sample, cells are removed by centrifugation for 1 minute at 10,000 rpm and the amount of acrylamide formed is determined by analyzing the clear supernatant by HPLC. The concentration of acrylamide shall be between 0.25 and 1.25 mmol/l—if necessary, the sample has to be diluted accordingly and the conversion has to be repeated. The enzyme activity is deduced from the concentration of acrylamide by dividing the acrylamide concentration derived from HPLC analysis by the reaction time, which has been 10 minutes and by multiplying this value with the dilution factor between HPLC sample and original sample. […]) and/or to the nucleotide sequence of SEQ ID NO: 3 (beta-subunit of nitrile hydratase of R. rhodochrous: […]), provided that the polypeptide encoded by said polynucleotide is capable of catalyzing hydration of acrylonitrile to acrylamide (i.e. has nitrile hydratase activity) as described and exemplified herein. […] VIV) and/or to the amino acid sequence of SEQ ID NO: 4 (beta-subunit of nitrile hydratase of R. rhodochrous: […]), provided that said polypeptide is capable of catalyzing hydration of acrylonitrile to acrylamide as described and exemplified herein.
Different sugar/organic acid ratios were evaluated for different strains of Rhodococcus (R. rhodochrous “CIBA” (NCIMB 41164) and R. rhodochrous “J1” (FERM BP-1478)), in a microfermentation system.
The basic cultivation medium contained yeast extract (Biospringer) (1.25 g/l), KH2PO4 (10 g/l), K2HPO4 (10 g/l), (NH4)2SO4 (1 g/l), MgSO4*7H2O (0.375 g/l), CaCl2*2H2O (25 mg/l), Trace element solution (2.5 g/l) (see below), Co(NO3)2 (31.2 mg/l), anti-foam P2000 (BASF) (62.5 mg/l), urea (7 g/l), and ammonium glutamate (2.5 g/l) in H2O.
Trace Element Solution: Citric acid mono hydrate (40 g/l), ZnSO4*7H2O (11 g/l), (NH4)2Fe(SO4)2*6H2O (8.5 g/l), MnSO4*H2O (3 g/l), and CuSO4*5H2O (0.8 g/l) in H2O.
(§1) The medium was then supplemented with 10 g/l of carbon source (saccharide, organic acid or mixture of both as indicated in the Tables below). pH was adjusted to 6.6 using H3PO4 or NaOH. The medium was inoculated directly from cryo stocks to OD 0.05 (measured at 600 nm). Cultivation was carried out at 37° C. for 64 h at 1,100 rpm in a BioLector micro fermentation system (M2P Labs, Baesweiler, Germany) using 48-well flower plates with a working volume of 1.5 ml. After cultivation, samples were drawn, quenched with hydrochloric acid and nitrile hydratase activity was determined as described in Example 2.
Nitrile hydratase activities achieved with the saccharide as sole carbon source were set to 100%.

[2] = tested on: R. rhodochrous “J1” (FERM BP-1478); assay: Relative nitrile hydratase activity after cultivation of R. rhodochrous "J1" with different carbon sources; type: cell-based, Rhodococcus rhodochrous; details: 10 g/l, 64 h
Experimental: In context with the present invention, activity of an nitrile hydratase in the sense of the present invention can be determined as follows: First reacting 100 μl of a cell suspension, cell lysate, dissolved enzyme powder or any other preparation containing the supposed nitrile hydratase with 875 μl of an 50 mM potassium phosphate buffer and 25 μl of acrylonitrile at 25° C. on an eppendorf tube shaker at 1,000 rpm for 10 minutes. After 10 minutes of reaction time, samples are drawn and immediately quenched by adding the same volume of 1.4% hydrochloric acid. After mixing of the sample, cells are removed by centrifugation for 1 minute at 10,000 rpm and the amount of acrylamide formed is determined by analyzing the clear supernatant by HPLC. The concentration of acrylamide shall be between 0.25 and 1.25 mmol/l—if necessary, the sample has to be diluted accordingly and the conversion has to be repeated. The enzyme activity is deduced from the concentration of acrylamide by dividing the acrylamide concentration derived from HPLC analysis by the reaction time, which has been 10 minutes and by multiplying this value with the dilution factor between HPLC sample and original sample. […]
Different sugar/organic acid ratios were evaluated for different strains of Rhodococcus (R. rhodochrous “CIBA” (NCIMB 41164) and R. rhodochrous “J1” (FERM BP-1478)), in a microfermentation system. […]
as §1, with “Cultivation was carried out at 37° C. for 64 h at 1,100 rpm in a BioLector micro fermentation system (M2P Labs, Baesweiler, Germany) using 48-well flower plates with a working volume of 1.5 ml.” left out, “2. […]” for “2.”

[3] = Only acid as carbon source, 37° C., fructose as sole carbon source = 100%
[4] = Only acid as carbon source, 37° C., glucose as sole carbon source = 100%
[5] = Only acid as carbon source, 37° C., mannose as sole carbon source = 100%
[6] = Only acid as carbon source, 37° C., ribose as sole carbon source = 100%
[7] = Only saccharide as carbon source, set to 100%

SMILES | relative nitrile hydratase activity [1, 3] | relative nitrile hydratase activity [1, 4] | relative nitrile hydratase activity [1, 5] | relative nitrile hydratase activity [1, 6] | relative nitrile hydratase activity [1, 7] | relative nitrile hydratase activity [2, 7] | relative nitrile hydratase activity [2, 3] | relative nitrile hydratase activity [2, 4]
O=C(O)CCC(=O)O [Succinic, succinic acid] | 30% | 150% | 1204% | 1291% | – | – | – | –
O=C(O)CC(O)C(=O)O (stereo not drawn) [Malic, malic acid] | 39% | 197% | 1579% | 1693% | – | – | – | –
O=C(O)CC(O)(CC(=O)O)C(=O)O [Citric, citric acid] | 32% | 164% | 1315% | 1409% | – | – | – | –
O=C[C@H](O)[C@H](O)[C@H](O)CO [Ribose, ribose] | – | – | – | – | 100% | – | – | –
O=C(O)C(O)C(O)C(=O)O (stereo not drawn) [Tartaric, tartaric acid] | 34% | 173% | 1388% | 1487% | – | – | – | –
O=C(CO)[C@@H](O)[C@H](O)[C@H](O)CO [Fructose, fructose] | – | – | – | – | 100% | 100% | – | –
CC(O)C(=O)O (stereo not drawn) [Lactic, lactic acid] | – | – | – | – | – | – | 73% | 1963%
